One assay has as its system 293T cells. Nature of the assay: Growth assay (cytotoxicity). The class given is cell-based. As to conditions: 2 day incubation. Here is the method: A growth assay was performed to evaluate the compounds disclosed herein for cytotoxicity. Briefly, 5,000,000 293T cells were resuspended in 18 mL of cDMEM for a final concentration of 277,777 cells/mL. […] In a separate 96 well dilution plate, 199 uL cDMEM and 1 uL of DMSO or any one of the compounds disclosed herein (shown as Test Compound 1, 2, 3, 4, 5, or 6 below) were added to wells A4, A8, C4, C8, E4, E8, G4, and G8. 133.3 uL cDMEM was added to wells 1, 2, 3, 5, 6, and 7 in rows A, C, E and G of the dilution plate. Compounds were serially diluted leftwards in threefold dilutions (66.7 uL into 133.3 uL cDMEM). 20 uL of each dilution was transferred in duplicate (duplicates in vertical paired wells) to the cells plated in the 96-well plate shown in Table 5, to the total concentrations shown below. 200 uL cDMEM was added to media wells (wells G5-H8). The plate was then placed in a humidified chamber for a 2 day incubation, and then photographed (media was more yellow in wells with potent cell growth). Absorbance was then measured at about […] (lower for more acidic media) and about […] (higher for more acidic media).

Assay [1] addresses T1, IRE1a (Homo sapiens, UniProt O75460). As to the kind of experiment: IRE1a Endoribonuclease Nanoluciferase Assay (XBP1 luciferase reporter in 293T cells). The class given is cell-based. As to conditions: 293T cells transfected with XBP1 luciferase reporter, ER stressors +/- inhibitors. A digest of the protocol:
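293T cells were transfected with a PGK-Luc2-P2A-XBP1u-nanoluciferase-PEST reporter and plated in 96-well format. A day later they were treated with ER stressors with or without inhibitors. Lysates were read for luminescence with OneGlo, then again after Stop and Glo.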

In assay [2] the target is T1, IRE1a. As to the kind of experiment: In vitro FRET assay (XBP1 RNA probe cleavage by IRE1a). The class given is biochemical. Also on record: purchased SignalChem. As to conditions: 2 nM IRE1a protein.

Each structure is given as a SMILES string.

A word on the EC50: it is the concentration at which the effect is half-maximal. Read a high EC50 as lower potency in that assay. In general, IC50 refers to the point on the concentration scale where inhibition reaches its midpoint.

T1 sequence (O75460 19-977): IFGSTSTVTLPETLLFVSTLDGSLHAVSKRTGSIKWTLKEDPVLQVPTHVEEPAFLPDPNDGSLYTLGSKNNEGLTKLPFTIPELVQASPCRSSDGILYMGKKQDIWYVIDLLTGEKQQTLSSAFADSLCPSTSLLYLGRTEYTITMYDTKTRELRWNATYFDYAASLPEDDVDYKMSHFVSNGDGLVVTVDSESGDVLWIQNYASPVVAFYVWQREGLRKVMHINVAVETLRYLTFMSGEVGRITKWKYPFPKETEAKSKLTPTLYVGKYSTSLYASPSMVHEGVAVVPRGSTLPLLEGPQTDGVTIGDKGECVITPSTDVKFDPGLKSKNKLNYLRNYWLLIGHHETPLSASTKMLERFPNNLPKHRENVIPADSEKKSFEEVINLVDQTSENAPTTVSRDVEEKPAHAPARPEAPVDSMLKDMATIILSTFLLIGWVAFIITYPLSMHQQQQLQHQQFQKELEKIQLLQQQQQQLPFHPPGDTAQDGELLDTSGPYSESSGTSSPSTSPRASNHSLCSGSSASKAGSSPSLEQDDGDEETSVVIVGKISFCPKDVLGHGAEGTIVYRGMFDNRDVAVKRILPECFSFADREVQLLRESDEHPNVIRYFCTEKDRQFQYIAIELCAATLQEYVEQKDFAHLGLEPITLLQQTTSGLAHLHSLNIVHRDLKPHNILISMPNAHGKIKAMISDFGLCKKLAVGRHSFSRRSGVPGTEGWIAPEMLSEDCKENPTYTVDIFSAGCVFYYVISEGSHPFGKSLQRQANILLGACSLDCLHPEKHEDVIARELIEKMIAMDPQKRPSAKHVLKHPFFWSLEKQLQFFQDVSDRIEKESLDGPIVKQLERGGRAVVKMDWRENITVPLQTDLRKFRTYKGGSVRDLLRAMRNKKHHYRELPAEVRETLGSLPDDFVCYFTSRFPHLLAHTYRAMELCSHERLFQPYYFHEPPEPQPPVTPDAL

On to `CCc1cc(-c2ccc(NS(=O)(=O)c3ccccc3Cl)cc2F)cc2cnc(N[C@H]3CC[C@H](N)CC3)nc12.O=CO` [35; Formic Acid], for which, in the assay on 293T cells, the “% Growth at 0.185 uM” value is recorded as “D (D: >75% to ≤100%)”, the “% Growth at 0.5556 uM” value was “D (D: >75% to ≤100%)”, the “% Growth at 1.667 uM” value was “C (C: >50% to ≤75%)” and the “% Growth at 5 uM” value is given as “B (B: >25% to ≤50%)”. On IRE1a [1], the half-maximal effective concentration (EC50) was ≤ 5 nM. On IRE1a [2], the IC50 is ≤ 5 nM.
Turning to `CCc1cc(-c2cnc(NS(=O)(=O)c3ccccc3Cl)nc2OC)cc2cnc(N[C@H]3CC[C@H](N)CC3)nc12.O=CO` [46; Formic Acid], in the assay on 293T cells, the “% Growth at 0.185 uM” value is “D (D: >75% to ≤100%)”, the “% Growth at 0.5556 uM” value is recorded as “D (D: >75% to ≤100%)”, the “% Growth at 1.667 uM” value is reported as “D (D: >75% to ≤100%)” and the “% Growth at 5 uM” value is reported as “D (D: >75% to ≤100%)”. In addition, the concentration giving a half-maximal response (EC50) on IRE1a [1] is ≤ 5 nM. Besides, at IRE1a [2], the 50% inhibitory concentration (IC50) was ≤ 5 nM.
In the case of `CCc1cc(-c2ncc(NS(=O)(=O)c3ccccc3Cl)cc2F)cc2cnc(N[C@H]3CC[C@H](N)CC3)nc12.O=CO` [52; Formic Acid], in the assay with 293T cells, the “% Growth at 0.185 uM” value was “D (D: >75% to ≤100%)”, the “% Growth at 0.5556 uM” value is “D (D: >75% to ≤100%)”, the “% Growth at 1.667 uM” value is given as “D (D: >75% to ≤100%)” and the “% Growth at 5 uM” value is reported as “C (C: >50% to ≤75%)”. Moreover, the concentration for a half-maximal effect (EC50) on IRE1a [1] is ≤ 5 nM. Further, on IRE1a [2], the 50% inhibitory concentration (IC50) is ≤ 5 nM.
Turning to `CCc1cc(-c2cnc(NS(=O)(=O)c3ccccc3Cl)c(F)c2)cc2cnc(N[C@H]3CC[C@H](N)CC3)nc12.O=CO` [55; Formic Acid], in the assay with 293T cells, the “% Growth at 0.185 uM” value is given as “D (D: >75% to ≤100%)”, the “% Growth at 0.5556 uM” value was “D (D: >75% to ≤100%)”, the “% Growth at 1.667 uM” value is given as “D (D: >75% to ≤100%)” and the “% Growth at 5 uM” value is “D (D: >75% to ≤100%)”. Moreover, on IRE1a [1], the EC50 is ≤ 5 nM. Besides, the IC50 against IRE1a [2] is ≤ 5 nM.
`CCc1cc(-c2nnc(NS(=O)(=O)c3ccccc3Cl)cc2OC)cc2cnc(N[C@H]3CC[C@H](N)CC3)nc12.O=CO` [65; Formic Acid]: in the assay on 293T cells, the “% Growth at 0.185 uM” value is on record as “D (D: >75% to ≤100%)”, the “% Growth at 0.5556 uM” value is reported as “D (D: >75% to ≤100%)”, the “% Growth at 1.667 uM” value was “D (D: >75% to ≤100%)” and the “% Growth at 5 uM” value is recorded as “C (C: >50% to ≤75%)”. Further, the EC50 at IRE1a [1] lay within 5 to 50 nM. For the same compound, at IRE1a [2], the 50% inhibitory concentration (IC50) was ≤ 5 nM.
On to `CCc1cc(-c2nnc(NS(=O)(=O)c3ccccc3Cl)cc2C)cc2cnc(N[C@H]3CC[C@H](N)CC3)nc12.O=CO` [67; Formic Acid], for which, in the assay on 293T cells, the “% Growth at 0.185 uM” value is given as “D (D: >75% to ≤100%)”, the “% Growth at 0.5556 uM” value is reported as “D (D: >75% to ≤100%)”, the “% Growth at 1.667 uM” value is recorded as “C (C: >50% to ≤75%)” and the “% Growth at 5 uM” value is given as “C (C: >50% to ≤75%)”. On IRE1a [1], this compound gave an EC50 of 5 to 50 nM. The half-inhibitory concentration (IC50) at IRE1a [2] is ≤ 5 nM.
Consider `CCc1cc(-c2ccc(NS(=O)(=O)c3ccccc3Cl)c(F)c2C)cc2cnc(N[C@H]3CC[C@H](N)CC3)nc12.O=CO` [71; Formic Acid], for which, in the assay with 293T cells, the “% Growth at 0.185 uM” value is “D (D: >75% to ≤100%)”, the “% Growth at 0.5556 uM” value was “D (D: >75% to ≤100%)”, the “% Growth at 1.667 uM” value is given as “C (C: >50% to ≤75%)” and the “% Growth at 5 uM” value is listed as “B (B: >25% to ≤50%)”. The EC50 on IRE1a [1] was ≤ 5 nM. Moreover, the 50% inhibitory concentration (IC50) at IRE1a [2] was ≤ 5 nM.

These data come from patent publication US20180346446A1, “IRE1 SMALL MOLECULE INHIBITORS” (QUENTIS THERAPEUTICS, INC., priority 2017, published 2018).
